Reference: patent publication US20250025443A1, “COMPOUNDS AND METHODS FOR TREATING CORONA VIRUSES” (CLEAR CREEK BIO, INC., priority 2021, published 2025)

Each molecule was assayed against SARS-CoV-2 Papain-Like Protease (PLpro) (Severe acute respiratory syndrome coronavirus 2 (2019-nCoV) (SARS-CoV-2), UniProt P0DTD1) (assay: biochemical). Settings: PLpro enzymatic fluorescence assay; class symbols; read-out: PLpro IC50.

`COc1cc(C2(NC(=O)c3cc(OC[C@H]4C[C@H](F)CN4C)ccc3C)CC2)c2cccnc2c1` [Compound 557, 5-(((2R,4S)-4-Fluoro-1-methylpyrrolidin-2-yl)methoxy)-N-(1-(7-methoxyquinolin-5-yl)cyclopropyl)-2-methylbenzamide] and `Cc1ncc(-c2cc(C3(NC(=O)c4cc(OC[C@@H]5CCN5C)ccc4C)CC3)c3cccnc3c2)o1` [Compound 716, (S)-2-Methyl-5-((1-methylazetidin-2-yl)methoxy)-N-(1-(7-(2-methyloxazol-5-yl)quinolin-5-yl)cyclopropyl)benzamide] cannot be ordered by IC50: under 100 nM for the first, under 100 nM for the second.

`C=Cc1cc(C2(NC(=O)c3cc(OC[C@@H]4CCN4C)ccc3C)CC2)c2ccc(C)nc2c1` [Compound 813, (S)-2-Methyl-N-(1-(2-methyl-7-vinylquinolin-5-yl)cyclopropyl)-5-((1-methylazetidin-2-yl)methoxy)benzamide] and `Cc1ccc2c(C3(NC(=O)c4cc(OC[C@@H]5CCN5C)ccc4C)CC3)cc(N3CC(C(F)(F)F)C3)cc2n1` [Compound 810, (S)-2-Methyl-N-(1-(2-methyl-7-(3-(trifluoromethyl)azetidin-1-yl)quinolin-5-yl)cyclopropyl)-5-((1-methylazetidin-2-yl)methoxy)benzamide] cannot be ordered by IC50: under 100 nM for the first, under 100 nM for the second.

`Cc1ccc(OC[C@@H]2CCN2C)cc1C(=O)NC1(c2cc(-c3ncccn3)cc3ncccc23)CC1` [Compound 681, (S)-2-Methyl-5-((1-methylazetidin-2-yl)methoxy)-N-(1-(7-(pyrimidin-2-yl)quinolin-5-yl)cyclopropyl)benzamide] and `Cc1ccc(OC[C@@H]2CCN2C)cc1C(=O)NC1(c2cc(-c3cc(Cl)cs3)cc3ncccc23)CC1` [Compound 632, (S)-N-(1-(7-(4-Chlorothiophen-2-yl)quinolin-5-yl)cyclopropyl)-2-methyl-5-((1-methylazetidin-2-yl)methoxy)benzamide] cannot be ordered by IC50: under 100 nM for the first, under 100 nM for the second.

`C=C(C)c1cc(C2(NC(=O)c3cc(OC[C@@H]4CCN4)ccc3C)CC2)c2cccnc2c1` [Compound 613, (S)-5-(Azetidin-2-ylmethoxy)-2-methyl-N-(1-(7-(prop-1-en-2-yl)quinolin-5-yl)cyclopropyl)benzamide] and `Cc1ccc(-c2cc(C3(NC(=O)c4cc(OC[C@@H]5CCN5)ccc4C)CC3)c3cccnc3c2)o1` [Compound 646, (S)-5-(Azetidin-2-ylmethoxy)-2-methyl-N-(1-(7-(5-methylfuran-2-yl)quinolin-5-yl)cyclopropyl)benzamide] cannot be ordered by IC50: under 100 nM for the first, under 100 nM for the second.

Compared with `COCCC(NCc1cc([N+](=O)[O-])ccc1C)c1cccc2ccccc12` (stereo not drawn) [Compound 113], `Cc1ccc(OC[C@@H]2CCN2)cc1C(=O)NC1(c2cc(-c3ncn4ccccc34)cc3ncccc23)CC1` [Compound 733, (S)-5-(Azetidin-2-ylmethoxy)-N-(1-(7-(imidazo[1,5-a]pyridin-1-yl)quinolin-5-yl)cyclopropyl)-2-methylbenzamide] is lower in IC50: over 5000 nM for the first, under 100 nM for the second.

`Cc1ccc(OC[C@@H]2CCN2)cc1C(=O)NC1(c2cc(-c3ccc4ncnn4c3)cc3ncccc23)CC1` [Compound 685, (S)-N-(1-(7-([1,2,4]Triazolo[1,5-a]pyridin-6-yl)quinolin-5-yl)cyclopropyl)-5-(azetidin-2-ylmethoxy)-2-methylbenzamide] and `Cc1nc(Cl)c(-c2cc(C3(NC(=O)c4cc(OC[C@@H]5CCN5C)ccc4C)CC3)c3cccnc3c2)s1` [Compound 812, (S)-N-(1-(7-(4-Chloro-2-methylthiazol-5-yl)quinolin-5-yl)cyclopropyl)-2-methyl-5-((1-methylazetidin-2-yl)methoxy)benzamide] cannot be ordered by IC50: under 100 nM for the first, under 100 nM for the second.

`CC(=O)c1ccc(-c2cc(C3(NC(=O)c4cc(OC[C@@H]5CCN5C)ccc4C)CC3)c3cccnc3c2)s1` [Compound 657, (S)-N-(1-(7-(5-Acetylthiophen-2-yl)quinolin-5-yl)cyclopropyl)-2-methyl-5-((1-methylazetidin-2-yl)methoxy)benzamide] and `Cc1ccc(-c2cc(C3(NC(=O)c4cc(OC[C@@H]5CCN5C)ccc4C)COC3)c3cccnc3c2)o1` [Compound 808] cannot be ordered by IC50: under 100 nM for the first, under 100 nM for the second.

Same assay, conditions: SARS-CoV-2 PLpro enzymatic fluorescence assay; read-out: PLpro IC50

`COc1cc(C2(NC(=O)c3cc(OCCN)ccc3C)CC2)c2ccccc2c1` [Compound 363, 5-(2-Aminoethoxy)-N-(1-(3-methoxynaphthalen-1-yl)cyclopropyl)-2-methylbenzamide] and `Cc1ccc(OCC2CCN2CC2CC2)cc1C(=O)NC1(c2cccc3ccccc23)CC1` (stereo not drawn) [Compound 332, 5-((1-(Cyclopropylmethyl)azetidin-2-yl)methoxy)-2-methyl-N-(1-(naphthalen-1-yl)cyclopropyl)benzamide] cannot be ordered by IC50: under 100 nM for the first, under 100 nM for the second.

Going from `Cc1cc2cc(CN)[nH]c2cc1C(=O)NCc1cccc2ccccc12` [Compound 241, 2-(Aminomethyl)-5-methyl-N-(naphthalen-1-ylmethyl)-1H-indole-6-carboxamide] to `COc1cc(C2(NC(=O)c3cc(OC[C@@H]4CCN4C)c(N)cc3C)CC2)c2cccnc2c1` [Compound 597, (S)-4-Amino-N-(1-(7-methoxyquinolin-5-yl)cyclopropyl)-2-methyl-5-((1-methylazetidin-2-yl)methoxy)benzamide], the IC50 falls from over 5000 nM to under 100 nM. The second is the more potent here.

First: Cc1ccc(OCCN(C)C)cc1C(=O)NC1(c2cccc(Cl)c2Cl)CC1 [Compound 335, N-(1-(2,3-Dichlorophenyl)cyclopropyl)-5-(2-(dimethylamino)ethoxy)-2-methylbenzamide]
Second: Cc1ccc(OC[C@H]2CCCN2C)cc1C(=O)NC1(c2cccc3ncccc23)CC1 [Compound 382, (R)-2-Methyl-5-((1-methylpyrrolidin-2-yl)methoxy)-N-(1-(quinolin-5-yl)cyclopropyl)benzamide]
The IC50 of the first is higher: 100 to 1000 nM for the first, under 100 nM for the second.

First: Cc1cc2nc(CN)[nH]c2cc1C(=O)N[C@H](C)c1cccc2ccccc12 [Compound 128, (R)-2-(Aminomethyl)-5-methyl-N-(1-(naphthalen-1-yl)ethyl)-1H-benzo[d]imidazole-6-carboxamide]
Second: Cc1ccc(OCCN(C)C)cc1C(=O)NC1(c2ccc(Oc3ccccc3)cc2)CC1 [Compound 279, 5-(2-(Dimethylamino)ethoxy)-2-methyl-N-(1-(4-phenoxyphenyl)cyclopropyl)benzamide]
The IC50 of the first is lower: 100 to 1000 nM for the first, 1000 to 5000 nM for the second. The first is the more potent here.

`Cc1ccc(N)cc1C(=O)NS(=O)(=O)c1cccc2ccccc12` [Compound 242, 5-Amino-2-methyl-N-(naphthalen-1-ylsulfonyl)benzamide] and `CCS(=O)(=O)N1CCC([C@@H](C)NC(=O)c2cc(NC3CNC3)ccc2C)CC1` [Compound 166, (R)-5-(Azetidin-3-ylamino)-N-(1-(1-(ethylsulfonyl)piperidin-4-yl)ethyl)-2-methylbenzamide] cannot be ordered by IC50: over 5000 nM for the first, over 5000 nM for the second.

Compared with `Cc1ccc(N)cc1CN[C@H](C)c1cccc2ccccc12` [Compound 106, (R)-4-Methyl-3-(((1-(naphthalen-1-yl)ethyl)amino)methyl) aniline], `Cc1ccc(OCCN(C)C)cc1C(=O)NC1(c2cccc3occc23)CC1` [Compound 357, N-(1-(Benzofuran-4-yl)cyclopropyl)-5-(2-(dimethylamino)ethoxy)-2-methylbenzamide] is lower in IC50: over 5000 nM for the first, 100 to 1000 nM for the second.

First: Cc1ccc(OC[C@@H]2CCN2C)cc1C(=O)NC1(c2cc(Br)cc3ncccc23)CC1 [Compound 563, (S)-N-(1-(7-Bromoquinolin-5-yl)cyclopropyl)-2-methyl-5-((1-methylazetidin-2-yl)methoxy)benzamide]
Second: CC(c1cccc2ccccc12)N1CCc2ccc(N)cc2C1 (stereo not drawn) [Compound 135, 2-(1-(Naphthalen-1-yl)ethyl)-1,2,3,4-tetrahydroisoquinolin-7-amine]
The IC50 of the first is lower: under 100 nM for the first, 1000 to 5000 nM for the second.

Going from `Cc1cc2cc(CN)oc2cc1C(=O)NC1(c2cccc3ccccc23)CC1` [Compound 197, 2-(Aminomethyl)-5-methyl-N-(1-(naphthalen-1-yl)cyclopropyl)benzofuran-6-carboxamide] to `Cc1ccc(OCCN(C)C)cc1C(=O)NC1(c2ccc(OCc3ccccc3)cc2)CC1` [Compound 307, N-(1-(4-(Benzyloxy)phenyl)cyclopropyl)-5-(2-(dimethylamino)ethoxy)-2-methylbenzamide], the IC50 rises from under 100 nM to over 5000 nM. The first is the more potent here.

First: Cc1cc2cc(C3CNC3)[nH]c2cc1C(=O)N[C@H](C)c1cccc2ccccc12 [Compound 156, (R)-2-(Azetidin-3-yl)-5-methyl-N-(1-(naphthalen-1-yl)ethyl)-1H-indole-6-carboxamide]
Second: Cc1ccc(OCCN2CCCCC2)cc1C(=O)NC1(c2cccc3ccccc23)CC1 [Compound 254, 2-Methyl-N-(1-(naphthalen-1-yl)cyclopropyl)-5-(2-(piperidin-1-yl)ethoxy)benzamide]
The IC50 of the first is higher: 1000 to 5000 nM for the first, under 100 nM for the second.

`Cc1cc2[nH]ccc2cc1C(=O)NC1(c2cccc3ccccc23)CC1` [Compound 223, 6-Methyl-N-(1-(naphthalen-1-yl)cyclopropyl)-1H-indole-5-carboxamide] and `Cc1ccc(OC2CNC2)cc1C(=O)NC1(c2cccc3ccccc23)CC1` [Compound 171, 5-(Azetidin-3-yloxy)-2-methyl-N-(1-(naphthalen-1-yl)cyclopropyl)benzamide] fall in the same range of IC50: 100 to 1000 nM for the first, 100 to 1000 nM for the second.

`Cc1ccc(OC[C@H]2C[C@@H](O)CN2C)cc1C(=O)NC1(c2cccc3ccccc23)CC1` (single isomer, unassigned) [Compound 440] and “2-Methyl-N-(1-(naphthalen-1-yl)cyclopropyl)-5-(piperidin-2-ylmethoxy)benzamide [Compound 339]” cannot be ordered by IC50: under 100 nM for the first, under 100 nM for the second.

First: Cc1nc2cccc(C3(NC(=O)c4cc(OCCN(C)C)ccc4C)CC3)c2s1 [Compound 403, 5-(2-(Dimethylamino)ethoxy)-2-methyl-N-(1-(2-methylbenzo[d]thiazol-7-yl)cyclopropyl)benzamide]
Second: Cc1ccc(OCC2CCN2c2ccccc2)cc1C(=O)NC1(c2cccc3ccccc23)CC1 (stereo not drawn) [Compound 331, 2-Methyl-N-(1-(naphthalen-1-yl)cyclopropyl)-5-((1-phenylazetidin-2-yl)methoxy)benzamide]
The IC50 of the first is lower: 100 to 1000 nM for the first, over 5000 nM for the second.

Molecule `Cc1cc2ccn(C)c2cc1C(=O)NC1(c2cccc3ccccc23)CC1` [Compound 201, 1,5-Dimethyl-N-(1-(naphthalen-1-yl)cyclopropyl)-1H-indole-6-carboxamide] has an IC50 of 100 to 1000 nM.
